These are literature values, as cited in patent publication US20060235222A1, “Indole-derivative modulators of steroid hormone nuclear receptors” (ELI LILLY AND COMPANY, priority 2003, published 2006).

In the series the test system is patients suffering from advanced CHF. As to conditions: in combination with standard CHF therapy; cited from earlier work.

Take `CC(=O)S[C@@H]1CC2=CC(=O)CC[C@]2(C)[C@H]2CC[C@@]3(C)[C@@H](CC[C@@]34CCC(=O)O4)[C@H]12` [spironolactone]: the “reduced cardiac related mortality” value is on record as 30% and the “reduced frequency of hospitalization” value is recorded as 35%.
